From patent US7871635B2, “Use of compound that inactivates protein kinase A in a composition containing a cosmetically acceptable medium for lightening the skin” (Societe d'Exploitation de Produits pour les Industries …, priority 2002, dated 2011)

What was measured:
[1] = system: B16/F1 melanocyte cultures; assay: Extracellular melanin content in B16/F1 melanocyte cultures; format: cell-based, mouse; details: 72 hours; for Extracellular melanin: control 43 ± 11 μg/ml
Procedure: Mouse melanocytes of the B16/F1 line are inoculated in 96-well culture plates at a density of 1500 cells/well. […] The cells are used at 60% of confluence, i.e. 4 days after inoculation. The MCM medium has the following composition: […] N-Undecylenoylphenylalanine is diluted to 4 mg/ml in decinormal aqueous sodium hydroxide solution. It is tested at 40 μg/ml in the MCM medium. Sodium hydroxide has no effect on the parameters analyzed. […] Given its toxicity, it is not tested at 40 μg/ml. […] Control cultures are incubated, in the absence of product, in the MCM medium. These control cultures are prepared on each culture plate. Each test is performed six times. After incubation for 72 hours, the incubation media of the cells (n=6) are taken up and stored at -80° C. until the time of evaluation of the effects. The extracellular melanin is quantified by spectrophotometry at 450 nm. A melanin calibration range is prepared in parallel. The results are expressed as μg/ml of extracellular […] a percentage of inhibition relative to the control group.

[2] = system: B16/F1 melanocyte cultures; assay: Intracellular melanin content in B16/F1 melanocyte cultures; format: cell-based, mouse; details: 72 hours; for Intracellular melanin obtained: control 20 ± 4 μg/ml
Procedure: Mouse melanocytes of the B16/F1 line are inoculated in 96-well culture plates at a density of 1500 cells/well. […] The cells are used at 60% of confluence, i.e. 4 days after inoculation. The MCM medium has the following composition: […] N-Undecylenoylphenylalanine is diluted to 4 mg/ml in decinormal aqueous sodium hydroxide solution. It is tested at 40 μg/ml in the MCM medium. Sodium hydroxide has no effect on the parameters analyzed. […] Given its toxicity, it is not tested at 40 μg/ml. […] Control cultures are incubated, in the absence of product, in the MCM medium. These control cultures are prepared on each culture plate. Each test is performed six times. After incubation for 72 hours, a portion of the cell carpet (n=3) is rinsed with phosphate-buffered saline (PBS; pH=7.4), the composition of which is as follows: NaCl: 8 g/l, Na2HPO4: 1.15 g/l; […] The intracellular melanin is quantified by spectrophotometry at 450 nm. A melanin calibration range is prepared in parallel. The results are expressed as μg/ml of intracellular melanin and as a percentage of inhibition relative to the control group.

endogenous tyrosinase = assay: Phosphorylated tyrosinase activity in B16/F1 melanocyte lysates; format: cell-based, mouse; details: 72 hours; for Tyrosinase activity: control 9.8 ± 0.3 IU/ml
Procedure: Mouse melanocytes of the B16/F1 line are inoculated in 96-well culture plates at a density of 1500 cells/well. The cells are cultured in a culture medium (MCM medium) at 37° C. under a humid atmosphere containing 5% CO2. The cells are used at 60% of confluence, i.e. 4 days after inoculation.
The MCM medium has the following composition: DMEM medium (Dulbecco's Modified Eagle's Medium) containing 4.5 g/l of glucose supplemented with L-glutamine (2 mM), penicillin (50 IU/ml), streptomycin (50 μg/ml) and fetal calf serum (10% v/v).
N-Undecylenoylphenylalanine is diluted to 4 mg/ml in decinormal aqueous sodium hydroxide solution. […]
The melanocyte cultures are incubated in the presence of the test product or of the reference products for 72 hours at 37° C., under a humid atmosphere containing 5% CO2.
Control cultures are incubated, in the absence of product, in the MCM medium. These control cultures are prepared on each culture plate.
Each test is performed six times.
After incubation for 72 hours, the second portion of the cell carpet (n=3) is rinsed with PBS. The cells are lyzed with Triton™ X100 at a concentration of 0.1% (w/v) for 30 minutes at room temperature. The activity of the endogenous tyrosinase is evaluated by adding 0.1% (w/v) of L-dopa, followed by incubation for 3 hours at 37° C. in the absence of air and light. The dopaquinone formed by the reaction between the tyrosinase and the L-dopa is measured by spectrophotometry at 450 nm. A calibration range of purified tyrosinase is prepared in parallel.
The results are expressed as IU/ml of tyrosinase activity and as a percentage of inhibition relative to the control group.

[3] = system: Pigmented human epidermides (phototype IV); assay: Chromametric measurement of the epidermal pigmentation in reconstructed human epidermides; format: cell-based; details: for L* (% of the control group) / a* (% of the control group) / b* (% of the control group) / b* / a* / L*: topical, 4 days; for b*: control 7.54 ± 0.00 AU; for a*: control 10.23 ± 0.51 AU; for L*: control 41.38 ± 0.69 AU
Procedure: Pigmented human epidermides (phototype IV) supplied by Skinethic, of 0.63 cm^2, are reconstructed from a coculture of normal human keratinocytes (skin of the forearm, donor, 2nd passage) and from normal human melanocytes (skin of the forearm, donor of phototype IV, 3rd passage). The keratinocyte/melanocyte ratio is 10:1. The cocultures are inoculated onto inert polycarbonate filters. They are cultured for 10 days in the medium supplied by Skinethic, consisting of MCDB 153 medium supplemented with 5 μg/ml of insulin, 1.5 mM of calcium and growth factors. […] The epidermides are cultured in 6-well plates containing 1 ml of the medium described above. […] The application is performed every day for 4 consecutive days. The incubation medium of the reconstructed epidermides is renewed every day for 4 consecutive days. Control epidermides are treated with a formulation free of active principle. Each test is performed in duplicate. Three days after the final topical application, the color of the epidermides is evaluated using a chromameter (Minolta) by measuring the following parameters L*, a* and b*: • L* is the lightness index. A depigmenting product should increase this parameter; • a* represents the color spectrum from […]. A depigmenting product should reduce this parameter; • b*: represents the color spectrum from […]. A depigmenting product should reduce this parameter. The results are expressed in arbitrary units (AU) of each parameter and as a percentage of the control group.

[4] = Mus musculus, B16-F1, at 40 μg/ml, read-out: Inhibition of extracellular melanin production
[5] = Mus musculus, B16-F1, at 40 μg/ml, read-out: Inhibition of intracellular melanin production
[6] = topical application at 1% and 3% (w/v) in an emulsion

SMILES | inhibition at 40 µg/mL [1, 4] [%] | Extracellular melanin ([1]; at 40 μg/ml) [µg/mL] | inhibition at 40 µg/mL [2, 5] [%] | Intracellular melanin obtained ([2]; at 40 μg/ml) [µg/mL] | Inhibition of tyrosinase activity (endogenous tyrosinase; at 40 μg/ml) [%] | Tyrosinase activity (endogenous tyrosinase; at 40 μg/ml) [IU/ml] | L* (% of the control group) ([3]; formulated at 1% (w/v)) | a* (% of the control group) ([3]; formulated at 1% (w/v)) | b* (% of the control group) ([3]; formulated at 1% (w/v)) | b* ([3]; formulated at 1% (w/v)) [AU] | a* ([3]; formulated at 1% (w/v)) [AU] | L* ([3]; formulated at 1% (w/v)) [AU] | L* (% of the control group) ([3]; formulated at 3% (w/v)) | a* (% of the control group) ([3]; formulated at 3% (w/v)) [%] | b* (% of the control group) ([3]; formulated at 3% (w/v)) | b* ([3]; formulated at 3% (w/v)) [AU] | a* ([3]; formulated at 3% (w/v)) [AU] | L* ([3]; formulated at 3% (w/v)) [AU] | effect on the chromametric parameters L*, a* and b* [3, 6] | further results
OC[C@H]1O[C@@H](Oc2ccc(O)cc2)[C@H](O)[C@@H](O)[C@@H]1O [Arbutin, arbutin] | 47 | 23 ± 6 | 19 | 16 ± 2 | 23 | 7.6 ± 1.1 | +2% | −2% | +1% | 7.64 ± 0.19 | 10.02 ± 0.13 | 40.48 ± 0.85 | +1% | −4 | +3% | 7.73 ± 0.34 | 9.86 ± 0.18 | 41.13 ± 0.54 | no significant effect | –
Oc1ccc(O)cc1 [Hydroquinone, hydroquinone] | – | – | – | – | – | – | – | – | – | – | – | – | – | – | – | – | – | – | – | inhibition at 5 µg/mL ([1]; Mus musculus, B16-F1, at 5 μg/ml, read-out: Inhibition of extracellular melanin production): 85%; Extracellular melanin ([1]; at 5 μg/ml): 7 ± 1 µg/mL; inhibition at 5 µg/mL ([2]; Mus musculus, B16-F1, at 5 μg/ml, read-out: Inhibition of intracellular melanin production): 100%; Intracellular melanin obtained ([2]; at 5 μg/ml): 0.2 ± 0.1 µg/mL; Inhibition of tyrosinase activity (endogenous tyrosinase; at 5 μg/ml): 69%; Tyrosinase activity (endogenous tyrosinase; at 5 μg/ml): 3.0 ± 0.3 IU/ml; L* (% of the control group) ([3]; formulated at 0.1% (w/v)): −9%; a* (% of the control group) ([3]; formulated at 0.1% (w/v)): 0%; b* (% of the control group) ([3]; formulated at 0.1% (w/v)): +3%; b* ([3]; formulated at 0.1% (w/v)): 7.73 ± 0.03 AU; a* ([3]; formulated at 0.1% (w/v)): 10.19 ± 1.21 AU; L* ([3]; formulated at 0.1% (w/v)): 40.59 ± 2.41 AU; effect on the chromametric parameters L*, a* and b* ([3]; topical application at 0.1% (w/v) in an emulsion): no significant effect
O=c1cc(CO)occ1O [Kojic acid, kojic acid] | 70 | 13 ± 2 | 17 | 17 ± 1 | – | – | +3% | +7% | +3% | 7.67 ± 0.03 | 10.90 ± 0.51 | 40.11 ± 1.41 | 0% | −8 | −5% | 7.13 ± 0.09 | 9.36 ± 1.02 | 41.69 ± 0.65 | no significant effect | –
C=CCCCCCCCCC(=O)NC(Cc1ccccc1)C(=O)O (centres unmarked) [N-Undecylenoylphenylalanine, N-(ω-undecylenoyl)phenylalanine] | 72 | 12 ± 1 | 66 | 7 ± 3 | 67 | 3.2 ± 0.6 | 0% | −12% | −21% | 5.96 ± 0.42 | 9.01 ± 1.33 | 41.34 ± 1.15 | +9% | −14 | −29% | 5.38 ± 0.06 | 8.78 ± 0.52 | 45.228 ± 1.49 | – | reduction of the a* color parameter ([3]; concentration of 3% (w/v)): 14%; reduction of the b* color parameter ([3]; concentration of 3% (w/v)): 29%; L* (% of the control group) ([3]; formulated at 3% (w/v), listed as N-undecylenoylphenylalanine): 9%; inhibition of the b* color parameter ([3]; topical application at 1% (w/v) in an emulsion): 15%
